Several values for one entry are separate records, joined by “and”; a condition that tells them apart may be missing. Equal entries are not always repeated. Ends that are not written are not given here.
Tests used:
ζ-potential (Zetasizer) = assay type: physicochemical; settings: Malvern Zetasizer Nano ZS90; mean ± SD
Protocol: (§1) The average molecular weight (Mw) and polydispersity (PDI) of the HPMA copolymer conjugates were determined by gel permeation chromatography (GPC) on an AKTA purifier equipment with a Superose 6 10/300 GL analytical column (GE Healthcare, USA) and a differential refraction detector (KNAUER, 2300, Germany). Hydrodynamic sizes and zeta potentials were determined using a Malvern Zetasizer Nano ZS90 equipment (Malvern Instruments Ltd, Malvern, UK). The contents of BS, CM1, and CM2 were determined using a bicinchoninic acid (BCA) protein assay. The PS concentration was determined by ultraviolet-visible (UV-Vis) spectroscopy at its characteristic absorbance peak (660 nm).

4T1 cells [1] = test: Photosensitizer cell binding (flow cytometry, confocal); assay type: cell-based, murine
Protocol: For cell binding investigation, 4T1 cells (4 × 10^5 cells/well) were seeded onto 12-well plates (NEST Biotechnology), and treated with i) P-PS for 1 h, ii) P-BS-PS for 1 h, or iii) P-BS-CM1 for 1 h followed by P-PS-CM2 for another 1 h (50 μg/mL BS equivalence, CM1:CM2 1:1 mol%, 25 μg/mL PS equivalence), respectively. Subsequently, cells were washed three times with PBS and observed using flow cytometry and confocal microscopy.

[2] = test system: orthotopic 4T1 breast tumors; test: IFN-γ+CD8+ T lymphocytes in primary tumors; assay type: in vivo, female BALB/c mice; settings: groups marked (+) (laser irradiation); individual mice, n = 5
Protocol: 4T1 cells (1 × 10^6 cells) were injected into the third mammary fat pad of female BALB/c mice (6–8-week). When tumor volumes reached nearly […] on day 7 after tumor inoculation, mice were randomly divided into 8 groups (n = 8 per group). For four groups without laser irradiation (−), mice were intravenously injected with the following samples: (1) saline on day 7, 14, 21, and 28, (2) P-PS on day 7, 14, 21, and 28, (3) P-BS-PS on day 7, 14, 21, and 28, or (4) P-BS-CM1 on day 7, 14, 21, and 28, followed by P-PS-CM2 on day 8, 15, 22, and 29 (5 mg/kg BS equivalence, CM1:CM2 1:1 mol%, 2.5 mg/kg PS equivalence), respectively. For four groups with laser irradiation (+), mice were treated with the same regimens and irradiated at 650 nm laser (580 mW/cm^2, 5 min) on day 9, 16, 23 and 30. Tumor volumes and mice survivals were recorded every other day. For the investigation of immune response and lung metastasis, 4T1 tumor-bearing female BALB/c mice (6–8-week, tumor volume~100 mm^3) were randomly divided into 8 groups (n = 5 per group) and given three rounds of above treatments. […] The pulmonary metastatic nodules were counted and analyzed by hematoxylin-eosin staining. […] ATP and HMGB1 concentrations in the supernatant of cell suspension were measured using a luciferase-based ATP assay kit and a mouse HMGB1 ELISA kit, respectively. […] Tumor volumes and mice survivals were recorded every other day.

4T1 cells [3] = test: Calreticulin exposure in vitro (flow cytometry); assay type: cell-based, murine
Protocol: (§2) For the investigation of CXCR4 downstream PI3K signals, cells were fixed, permeabilized, and stained with anti-PI 3 kinase p85 alpha recombinant rabbit monoclonal antibody (1:500 dilution, 4 °C, 1 h) and goat anti-rabbit IgG H&L Alexa Fluor® 647 (1:1000 dilution, 4 °C, 30 min), followed by flow cytometry analysis. For the investigation of ICD hallmarks, cells were stained with anti-calreticulin recombinant rabbit monoclonal antibody (1:500 dilution, 4 °C, 1 h) and goat anti-rabbit IgG H&L Alexa Fluor® 647 (1:1000 dilution, 4 °C, 40 min), followed by flow cytometry analysis. ATP levels in the cell culture supernatant were measured following the protocol of luciferase-based ATP assay kit.

4T1 cells [4] = test: Extracellular ATP release in vitro; assay type: cell-based, murine
Protocol: as §2

[5] = test system: orthotopic 4T1 breast tumors; test: PDT efficacy in vivo: primary tumor growth, survival, lung metastasis; design: species or system female BALB/c mice
Protocol: (§3) 4T1 cells (1 × 10^6 cells) were injected into the third mammary fat pad of female BALB/c mice (6–8-week). When tumor volumes reached nearly […] on day 7 after tumor inoculation, mice were randomly divided into 8 groups (n = 8 per group). For four groups without laser irradiation (−), mice were intravenously injected with the following samples: (1) saline on day 7, 14, 21, and 28, (2) P-PS on day 7, 14, 21, and 28, (3) P-BS-PS on day 7, 14, 21, and 28, or (4) P-BS-CM1 on day 7, 14, 21, and 28, followed by P-PS-CM2 on day 8, 15, 22, and 29 (5 mg/kg BS equivalence, CM1:CM2 1:1 mol%, 2.5 mg/kg PS equivalence), respectively. For four groups with laser irradiation (+), mice were treated with the same regimens and irradiated at 650 nm laser (580 mW/cm^2, 5 min) on day 9, 16, 23 and 30. Tumor volumes and mice survivals were recorded every other day. For the investigation of immune response and lung metastasis, 4T1 tumor-bearing female BALB/c mice (6–8-week, tumor volume~100 mm^3) were randomly divided into 8 groups (n = 5 per group) and given three rounds of above treatments. On day 28, lungs and tumors were harvested. lungs were fixed with Bouin’s solution. The pulmonary metastatic nodules were counted and analyzed by hematoxylin-eosin staining. Single-cell suspensions of tumor tissues were stained with anti-CD45-PerCP/Cy5.5 (1:300 dilution) and anti-calreticulin recombinant rabbit monoclonal antibody (1:500 dilution) at 4 °C for 1 h, and then stained with goat anti-rabbit IgG H&L Alexa Fluor® 647 (1:1000 dilution, 4 °C, 45 min), followed by flow cytometry analysis. ATP and HMGB1 concentrations in the supernatant of cell suspension were measured using a luciferase-based ATP assay kit and a mouse HMGB1 ELISA kit, respectively. Single-cell suspensions of tumors were stained with FITC anti-mouse CD3 antibody (1:300 dilution), PerCP/Cyanine5.5 anti-mouse CD4 antibody (1:300 dilution), anti-CD8α-APC (1:300 dilution), and anti-Foxp3-PE (1:300 dilution) for flow cytometry analysis of T cell subtypes (CD8^+ T cells, CD4^+ effector T cells, and Foxp3^+ regulatory T cells), and stained with PE anti-mouse/human CD11b antibody (1:300 dilution) and FITC anti-mouse Ly-6G/Ly-6C (Gr-1) antibody (1:300 dilution) for flow cytometry analysis of MDSCs (CD11b^+Gr1^+). Cytotoxic T cells in tumor tissues were investigated with immunofluorescent staining of IFN-γ and flow cytometry analysis using anti-IFN-γ-PE (1:300 dilution). For CD8-depletion assay, 4T1 tumor-bearing female BALB/c mice (6–8-week, tumor volume~100 mm^3) were randomly divided into 3 groups (n = 8 per group). Mice were intravenously given four doses of P-BS-CM1 on day 7, 14, 21 and 28, combined with P-PS-CM2 on day 8, 15, 22 and 29 (5 mg/kg BS equivalence, CM1:CM2 1:1 mol%, 2.5 mg/kg PS equivalence) in the presence or absence of InvivoMab anti-mouse CD8α (100 μg/mice). Mice were irradiated at 650 nm laser (580 mW/cm^2, 5 min) on day 9, 16, 23 and 30. Tumor volumes and mice survivals were recorded every other day.

[6] = Hydrodynamic size / size distribution by dynamic light scattering; assay type: physicochemical; settings: Malvern Zetasizer Nano ZS90, mean ± SD
Protocol: as §1
To investigate the coiled-coil assembly, varying CM1-to-CM2 ratios (3:1, 1:1, and 1:3) of P-BS-CM1 and P-CM2 were mixed in 10 mM PBS (pH 7.4) at 25 °C for 10 min. The total polymer concentration was kept constant at 10 mg/mL. Circular dichroism spectra, size distribution, and rheological properties of P-BS-CM1, P-CM2, and their mixture were measured. The surface morphology of P-BS-CM1 and the mixture (P-BS-CM1 + P-CM2) was observed using scanning electron microscopy. Additionally, for the FRET assay, CM1-to-CM2 equimolar of P-BS-CM1-Cy5 and P-CM2-Cy3 were mixed in 10 mM PBS (pH 7.4) at 25 °C for 10 min. Fluorescent spectra of P-BS-CM1-Cy5, P-CM2-Cy3, and the mixture (P-BS-CM1-Cy5+P-CM2-Cy3) were recorded at the Cy3 excitation wavelength of 550 nm.

[7] = test system: orthotopic 4T1 breast tumors; test: Intratumoral ICD hallmarks (CRT, ATP, HMGB1); assay type: in vivo, female BALB/c mice; settings: individual mice
Protocol: as §3

[8] = groups marked (+) (laser irradiation), n = 5
[9] = groups marked (-) (no laser irradiation), n = 5

## P-BS-PS: BS-multivalently-modified polymer-PS conjugate (LGASWHRPDKCCLGYQKRPLPA; not fully specified (residues 11, 12); cysteine pairing not given here; also: chlorin e6 photosensitizer on polymer)
ζ-potential (Zetasizer)
  ζ-potential: -18.24±2.31 mV
4T1 cells [1]; replicate 1
  Photosensitizer cell binding (fluorescence, Fig. 7a): 507603
4T1 cells [1]; replicate 2
  Photosensitizer cell binding (fluorescence, Fig. 7a): 505554
4T1 cells [1]; replicate 3
  Photosensitizer cell binding (fluorescence, Fig. 7a): 480665
[2]
  IFN-γ+ cells (%) in tumor-infiltrating CD8+ cells: 13.27% and 14.75% and 15.74% and 11.82% and 15.65%
4T1 cells [3]; replicate 1
  CRT positive cells (%): 20.53%
4T1 cells [3]; replicate 2
  CRT positive cells (%): 18.21%
4T1 cells [3]; replicate 3
  CRT positive cells (%): 17.1%
4T1 cells [4]; replicate 1
  Extracellular ATP: 52.31 nM
4T1 cells [4]; replicate 2
  Extracellular ATP: 40.65 nM
4T1 cells [4]; replicate 3
  Extracellular ATP: 40.42 nM
[5]; (+) with laser, mouse 1 of 5
  Number of lung metastatic nodules: 11
[5]; (+) with laser, mouse 2 of 5
  Number of lung metastatic nodules: 13
[5]; (+) with laser, mouse 3 of 5
  Number of lung metastatic nodules: 6
[5]; (+) with laser, mouse 4 of 5
  Number of lung metastatic nodules: 9
[5]; (+) with laser, mouse 5 of 5
  Number of lung metastatic nodules: 7
[5]; (-) no laser, mouse 1 of 5
  Number of lung metastatic nodules: 24
[5]; (-) no laser, mouse 2 of 5
  Number of lung metastatic nodules: 27
[5]; (-) no laser, mouse 3 of 5
  Number of lung metastatic nodules: 22
[5]; (-) no laser, mouse 4 of 5
  Number of lung metastatic nodules: 23
[5]; (-) no laser, mouse 5 of 5
  Number of lung metastatic nodules: 21
[6]
  Size: 22.4±1.4 nm
[7]; [8]
  ATP per tumor weight: 345.1 µmol/g and 303.2 µmol/g and 231.5 µmol/g and 287.7 µmol/g and 298.1 µmol/g
  CRT expression in tumor (MFI): 34335.1 MFI and 38552.2 MFI and 29253.6 MFI and 35944.5 MFI and 36607.6 MFI
  HMGB1 per tumor weight: 80.13 ng/g and 70.54 ng/g and 88.61 ng/g and 92.56 ng/g and 89.1 ng/g
[7]; [9]
  ATP per tumor weight: 191.5 µmol/g and 151.37 µmol/g and 120.13 µmol/g and 106.4 µmol/g and 205.73 µmol/g
  HMGB1 per tumor weight: 19.76 ng/g and 15.34 ng/g and 14.57 ng/g and 18.95 ng/g and 19.22 ng/g
[7]; groups marked (-) (no laser irradiation), n = 5, one line each
  CRT expression in tumor (MFI): 27343 MFI and 22321 MFI and 19321 MFI and 23431 MFI and 20197 MFI

— publication PMC10980815, “Cell surface patching via CXCR4-targeted nanothreads for cancer metastasis inhibition” (Nature Communications, 2024)
